Experimental data from the kinase profiling compilation of Christmann-Franck et al. (2016).

What was measured:
Assay in all cases: radiometric filter-binding kinase assay, Kinaseprofiler
[1] = system: CSNK1G3 (human), Q9Y6M4 [K91E/R174G/E302D]; settings: ATP 10 µM
[2] = system: GSK3B (human), P49841 [H350L]; settings: ATP 15 µM
[3] = system: MAPKAPK5 (human), Q8IW41 [R291E]; settings: ATP 15 µM
[4] = system: ROS1 (human), P08922 [V2262A]; settings: ATP 200 µM
[5] = system: PHKG2 (human), P15735 [F290L]; settings: ATP 10 µM
[6] = system: AKT3 (human), Q9Y243 [S472D]; settings: ATP 45 µM
AKT3 (human), Q9Y243 [S472D], sequence (Q9Y243 whole entry S472D, looked up): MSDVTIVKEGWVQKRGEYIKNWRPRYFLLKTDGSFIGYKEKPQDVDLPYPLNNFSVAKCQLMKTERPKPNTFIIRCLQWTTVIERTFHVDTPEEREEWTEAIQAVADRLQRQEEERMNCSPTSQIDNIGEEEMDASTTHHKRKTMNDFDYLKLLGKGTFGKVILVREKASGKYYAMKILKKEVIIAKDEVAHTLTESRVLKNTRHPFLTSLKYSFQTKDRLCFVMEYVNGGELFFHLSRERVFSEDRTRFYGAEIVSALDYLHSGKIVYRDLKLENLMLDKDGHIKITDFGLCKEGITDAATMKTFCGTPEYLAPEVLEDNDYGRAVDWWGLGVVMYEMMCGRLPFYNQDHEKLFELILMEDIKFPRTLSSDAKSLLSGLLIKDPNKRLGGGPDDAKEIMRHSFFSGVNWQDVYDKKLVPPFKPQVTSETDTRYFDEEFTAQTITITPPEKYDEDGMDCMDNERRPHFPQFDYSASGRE

PHKG2 (human), P15735 [F290L], sequence (P15735 whole entry F290L, looked up): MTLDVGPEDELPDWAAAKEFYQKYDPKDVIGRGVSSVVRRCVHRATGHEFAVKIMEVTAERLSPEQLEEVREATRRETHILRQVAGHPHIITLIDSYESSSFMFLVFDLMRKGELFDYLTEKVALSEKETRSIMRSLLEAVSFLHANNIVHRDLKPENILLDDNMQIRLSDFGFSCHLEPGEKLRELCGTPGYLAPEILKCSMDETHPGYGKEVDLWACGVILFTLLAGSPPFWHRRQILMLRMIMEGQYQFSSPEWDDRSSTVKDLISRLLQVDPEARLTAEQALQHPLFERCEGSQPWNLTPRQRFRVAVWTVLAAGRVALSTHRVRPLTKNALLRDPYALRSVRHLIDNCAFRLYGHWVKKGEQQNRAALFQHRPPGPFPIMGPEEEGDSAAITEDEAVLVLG
CSNK1G3 (human), Q9Y6M4 [K91E/R174G/E302D], sequence (Q9Y6M4 whole entry, looked up, stated change not applied): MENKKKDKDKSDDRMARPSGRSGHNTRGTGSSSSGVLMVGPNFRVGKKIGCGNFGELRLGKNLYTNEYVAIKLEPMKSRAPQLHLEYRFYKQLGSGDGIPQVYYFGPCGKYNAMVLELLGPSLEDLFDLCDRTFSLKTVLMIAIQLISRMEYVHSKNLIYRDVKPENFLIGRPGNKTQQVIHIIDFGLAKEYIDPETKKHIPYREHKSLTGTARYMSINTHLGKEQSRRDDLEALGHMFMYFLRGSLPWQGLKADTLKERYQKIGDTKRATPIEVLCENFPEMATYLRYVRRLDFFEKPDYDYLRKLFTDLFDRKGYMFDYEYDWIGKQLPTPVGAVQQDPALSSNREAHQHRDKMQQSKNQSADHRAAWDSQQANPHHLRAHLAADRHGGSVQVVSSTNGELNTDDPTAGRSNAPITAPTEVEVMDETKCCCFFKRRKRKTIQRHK
GSK3B (human), P49841 [H350L], sequence (P49841 whole entry, looked up, stated change not applied): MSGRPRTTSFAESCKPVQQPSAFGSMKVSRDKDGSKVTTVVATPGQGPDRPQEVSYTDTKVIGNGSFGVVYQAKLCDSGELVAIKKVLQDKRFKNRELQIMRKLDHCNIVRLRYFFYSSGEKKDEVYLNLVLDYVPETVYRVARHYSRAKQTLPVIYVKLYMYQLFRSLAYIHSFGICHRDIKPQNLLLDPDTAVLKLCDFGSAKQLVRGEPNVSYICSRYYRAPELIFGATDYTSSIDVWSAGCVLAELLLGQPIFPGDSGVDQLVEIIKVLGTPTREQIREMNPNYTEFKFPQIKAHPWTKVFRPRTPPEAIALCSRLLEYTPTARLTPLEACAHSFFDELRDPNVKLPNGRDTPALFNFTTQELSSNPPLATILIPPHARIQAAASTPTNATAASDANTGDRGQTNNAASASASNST
MAPKAPK5 (human), Q8IW41 [R291E], sequence (Q8IW41 whole entry, looked up, stated change not applied): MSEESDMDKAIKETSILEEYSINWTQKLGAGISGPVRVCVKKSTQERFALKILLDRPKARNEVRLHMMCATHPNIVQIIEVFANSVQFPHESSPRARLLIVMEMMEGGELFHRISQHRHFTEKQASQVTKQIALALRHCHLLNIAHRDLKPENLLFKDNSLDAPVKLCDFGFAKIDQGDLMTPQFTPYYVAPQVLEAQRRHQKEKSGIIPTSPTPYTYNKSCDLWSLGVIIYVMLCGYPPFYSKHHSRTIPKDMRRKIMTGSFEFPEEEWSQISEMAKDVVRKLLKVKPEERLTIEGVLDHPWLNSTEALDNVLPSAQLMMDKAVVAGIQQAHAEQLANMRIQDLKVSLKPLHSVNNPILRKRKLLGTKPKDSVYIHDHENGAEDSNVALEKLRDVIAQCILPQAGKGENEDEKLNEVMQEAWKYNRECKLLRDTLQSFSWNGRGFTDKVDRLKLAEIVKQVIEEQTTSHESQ
ROS1 (human), P08922 [V2262A], sequence (P08922 whole entry, looked up, stated change not applied): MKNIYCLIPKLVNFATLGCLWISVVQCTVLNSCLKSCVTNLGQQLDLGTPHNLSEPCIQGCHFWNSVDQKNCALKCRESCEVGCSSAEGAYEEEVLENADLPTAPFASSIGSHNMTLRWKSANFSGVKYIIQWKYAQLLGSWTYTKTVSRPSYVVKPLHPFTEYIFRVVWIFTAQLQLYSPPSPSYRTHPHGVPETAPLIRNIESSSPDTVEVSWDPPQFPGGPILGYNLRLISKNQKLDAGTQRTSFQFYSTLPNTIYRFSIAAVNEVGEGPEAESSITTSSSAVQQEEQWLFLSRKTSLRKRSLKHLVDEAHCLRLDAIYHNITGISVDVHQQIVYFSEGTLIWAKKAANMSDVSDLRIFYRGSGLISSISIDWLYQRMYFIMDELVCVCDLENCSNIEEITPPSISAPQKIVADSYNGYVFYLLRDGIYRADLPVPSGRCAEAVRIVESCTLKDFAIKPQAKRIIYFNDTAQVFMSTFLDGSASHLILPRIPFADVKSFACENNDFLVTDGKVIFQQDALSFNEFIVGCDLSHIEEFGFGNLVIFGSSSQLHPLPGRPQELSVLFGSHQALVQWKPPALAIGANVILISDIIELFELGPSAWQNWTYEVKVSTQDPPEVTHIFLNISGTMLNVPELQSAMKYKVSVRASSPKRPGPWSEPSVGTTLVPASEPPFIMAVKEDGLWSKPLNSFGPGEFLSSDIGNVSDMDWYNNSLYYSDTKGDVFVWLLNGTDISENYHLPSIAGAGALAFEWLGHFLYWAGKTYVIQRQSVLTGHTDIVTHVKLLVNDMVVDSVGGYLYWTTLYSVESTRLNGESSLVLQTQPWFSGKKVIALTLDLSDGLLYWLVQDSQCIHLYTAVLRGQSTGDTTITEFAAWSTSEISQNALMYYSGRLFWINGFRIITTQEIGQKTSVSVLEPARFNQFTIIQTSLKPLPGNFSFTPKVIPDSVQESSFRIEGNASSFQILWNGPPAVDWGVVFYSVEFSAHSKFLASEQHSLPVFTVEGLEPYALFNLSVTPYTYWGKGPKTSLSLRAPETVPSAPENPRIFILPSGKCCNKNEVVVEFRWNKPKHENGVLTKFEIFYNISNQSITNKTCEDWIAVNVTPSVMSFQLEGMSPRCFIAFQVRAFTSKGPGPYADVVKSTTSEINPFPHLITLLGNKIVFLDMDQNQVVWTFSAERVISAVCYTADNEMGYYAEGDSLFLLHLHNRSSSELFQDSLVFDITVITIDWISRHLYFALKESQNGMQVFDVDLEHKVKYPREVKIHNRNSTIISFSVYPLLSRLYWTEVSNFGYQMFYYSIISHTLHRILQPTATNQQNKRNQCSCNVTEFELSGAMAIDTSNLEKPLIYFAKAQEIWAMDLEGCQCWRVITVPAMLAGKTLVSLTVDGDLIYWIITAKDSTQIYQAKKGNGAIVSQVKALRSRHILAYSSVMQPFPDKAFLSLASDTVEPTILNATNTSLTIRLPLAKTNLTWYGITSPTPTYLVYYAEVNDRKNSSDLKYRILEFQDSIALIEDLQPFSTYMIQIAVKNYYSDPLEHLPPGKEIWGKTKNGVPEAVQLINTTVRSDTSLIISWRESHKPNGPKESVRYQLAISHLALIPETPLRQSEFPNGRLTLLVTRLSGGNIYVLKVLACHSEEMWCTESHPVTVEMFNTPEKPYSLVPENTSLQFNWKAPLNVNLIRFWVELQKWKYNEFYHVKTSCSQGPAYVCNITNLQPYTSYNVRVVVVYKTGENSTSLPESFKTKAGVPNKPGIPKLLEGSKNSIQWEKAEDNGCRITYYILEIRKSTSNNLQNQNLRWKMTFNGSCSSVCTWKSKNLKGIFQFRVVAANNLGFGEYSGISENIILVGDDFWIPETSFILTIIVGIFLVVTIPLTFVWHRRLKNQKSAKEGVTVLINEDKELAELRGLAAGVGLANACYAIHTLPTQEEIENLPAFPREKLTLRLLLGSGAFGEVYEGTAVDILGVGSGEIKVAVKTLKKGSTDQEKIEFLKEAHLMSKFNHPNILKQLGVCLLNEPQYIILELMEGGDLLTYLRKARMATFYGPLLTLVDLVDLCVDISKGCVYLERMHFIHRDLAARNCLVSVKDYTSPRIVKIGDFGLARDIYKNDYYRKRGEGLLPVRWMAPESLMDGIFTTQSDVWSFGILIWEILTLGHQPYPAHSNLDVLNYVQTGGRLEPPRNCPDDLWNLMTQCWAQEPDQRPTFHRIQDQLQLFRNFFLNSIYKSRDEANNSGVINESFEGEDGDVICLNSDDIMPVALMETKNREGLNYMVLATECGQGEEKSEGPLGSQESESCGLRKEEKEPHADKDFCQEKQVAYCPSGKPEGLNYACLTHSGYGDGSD

Row | SMILES | residual activity ([1]; compound 1.0 µM) [%] | residual activity ([1]; compound 10.0 µM) [%] | residual activity ([2]; compound 1.0 µM) [%] | residual activity ([2]; compound 10.0 µM) [%] | residual activity ([3]; compound 1.0 µM) [%] | residual activity ([3]; compound 10.0 µM) [%] | residual activity ([4]; compound 1.0 µM) [%] | residual activity ([4]; compound 10.0 µM) [%] | residual activity ([5]; compound 1.0 µM) [%] | residual activity ([5]; compound 10.0 µM) [%] | residual activity ([6]; compound 1.0 µM) [%] | residual activity ([6]; compound 10.0 µM) [%]
1 | O=C1Nc2ccccc2/C1=C1\Nc2ccccc2\C1=N/O | 63 | 20 | 10 | 1 | 78 | 24 | 105 | 88 | 25 | 12 | 95 | 64
2 | CN[C@@H]1C[C@H]2O[C@@](C)([C@@H]1OC)n1c3ccccc3c3c4c(c5c6ccccc6n2c5c31)C(=O)NC4 | 95 | 52 | – | – | – | – | – | – | – | – | – | 0
3 | COC(=O)[C@]1(O)C[C@@H]2O[C@@]1(C)n1c3ccccc3c3c4c(c5c6ccccc6n2c5c31)C(=O)NC4 | – | – | – | – | – | 0 | – | – | 0 | – | – | –
4 | O=C(Nc1cccc(Nc2nccc(Nc3cccc(C(F)(F)F)c3)n2)c1)C1CC1 | – | – | – | – | – | – | – | – | – | 100 | – | –
5 | O=C1c2ccccc2-c2n[nH]c3cccc1c23 | 83 | 31 | 74 | 58 | 59 | 14 | 93 | 85 | 77 | 15 | 89 | 66
